Results: publication PMC8118680 (Chemistry of Heterocyclic Compounds, 2021)

Assays:
[1] = system: influenza virus strain A/Puerto Rico/8/34 (H1N1); format: cell-based; conditions: result in words; for activity against influenza virus strain A/Puerto Rico/8/34 (H1N1): MDCK cells
MDCK cells = assay: Cytotoxicity in MDCK cells, MTT assay; format: cell-based; conditions: result in words

Structure (SMILES)	activity against influenza virus strain A/Puerto Rico/8/34 (H1N1) [1]	SI relative to the reference drug rimantadine ([1]; influenza A H1N1 in MDCK cells)	cytotoxicity (MDCK cells)
O=C(Cn1nnc(-c2ccccc2)n1)NNc1ncccn1 [Compound 7a, N '-(Pyrimidin-2-yl)-2-(5-phenyl-2 H -tetrazol-2-yl)acetohydrazide]	did not show activity	–	–
Cc1cc(C)nc(NNC(=O)Cn2nnc(-c3ccccc3)n2)n1 [Compound 7b, N '-(4,6-Dimethylpyrimidin-2-yl)-2-(5-phenyl-2 H -tetrazol-2-yl)acetohydrazide]	did not show activity	–	–
c1ccc(-n2nnnc2Sc2ncccn2)cc1 [Compound 12a, 2-[(1-Phenyl-1 H -tetrazol-5-yl)sulfanyl]pyrimidine]	did not show activity	–	–
Cc1cc(C)nc(Sc2nnnn2CC(=O)O)n1 [Compound 12b, {5-[(4,6-Dimethylpyrimidin-2-yl)sulfanyl]-1 H -tetrazol-1-yl}acetic acid]	–	twice	significantly lower cytotoxicity
